Measurements: patent publication US7262185B2, “Benzazepine derivative, process for producing the same, and use” (Takeda Chemical Industries Ltd., priority 2001, dated 2007)

Each molecule was assayed against T1, human CCR5 chemokine receptor (Homo sapiens, UniProt P51681) (assay: Inhibition of [125I]-RANTES binding to CCR5/CHO cells (CCR5 antagonistic activity)). Conditions: 40 min, test compound 1 μM, [125I]-RANTES as ligand, room temperature, read-out: Binding Inhibitory Ratio (%).
T1 construct: expressed in transfected cells
T1 sequence (P51681 whole entry): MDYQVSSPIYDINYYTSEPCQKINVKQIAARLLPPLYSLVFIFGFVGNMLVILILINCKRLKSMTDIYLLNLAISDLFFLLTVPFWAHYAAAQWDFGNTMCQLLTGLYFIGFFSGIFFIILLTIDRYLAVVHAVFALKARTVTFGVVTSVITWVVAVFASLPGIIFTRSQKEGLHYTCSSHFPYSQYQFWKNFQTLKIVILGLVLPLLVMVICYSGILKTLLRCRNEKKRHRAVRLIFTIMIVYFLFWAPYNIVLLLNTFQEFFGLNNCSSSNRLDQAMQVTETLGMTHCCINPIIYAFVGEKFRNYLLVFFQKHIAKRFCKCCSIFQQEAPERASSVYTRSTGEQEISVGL
Description: Cloning of CCR5 gene from human spleen cDNA was conducted using the PCR method. Using spleen cDNA (0.5 ng) (TOYOBO CO., LTD, QUICK-Clone cDNA) as a template, PCR was performed in a DNA Thermal Cycler 480 (manufactured by Perkin Elmer) (reaction conditions: 30 cycles of 95° C. for 1 minute, 60° C. for 1 minute, and 75° C. for 5 minutes) by adding primer sets, SEQ. ID NO: 1 (sequence length: 34; sequence type: nucleic acid; chain number: single strand; topology: linear; kind of sequence: other nucleic acid synthetic. DNA) described in Experimental. Example (1) of WO 99/32100, and SEQ ID NO: 2 (sequence length: 34; sequence type: nucleic acid; chain number: single strand; topology: linear; kind of sequence: other nucleic acid synthetic. DNA) described in Experimental. Example (1) of WO 99/32100, (25 pmol, respectively), which were prepared referring to the nucleotide sequence of CCR5 gene, as reported by Samson et al. (Biochemistry 35 (11), 3362-3367 (1996)) and by using TaKaRa. EX Taq (Takara Shuzo). The resultant. PCR product was subjected to agarose gel electrophoresis to collect an approximately 1.0 kb. DNA fragment, which was subjected to an Original TA Cloning Kit (Funakoshi Co., Ltd.) to carry out cloning of CCR5 gene.
The plasmid obtained above was digested with restriction enzymes XbaI (Takara Shuzo Co., Ltd.) and BamHI (Takara Shuzo Co., Ltd.), and then subjected to agarose gel electrophoresis to collect DNA fragment of about 1.0 kb. The DNA fragment and plasmid pcDNA 3.1 (Funakoshi. Co., Ltd.) for expression in animal cells, which was previously digested with XbaI and BamHI, were mixed and ligated by DNA Ligation Kit Ver. 2 (Takara Shuzo Co., Ltd.). The resulting plasmid was subjected to transformation into. E. coli JM109 competent cells (Takara Shuzo Co., Ltd.) to obtain plasmid pCKR5.
CHO-K1 cells were cultured in a 750-ml tissue culture flask (Becton, Dickinson and Company.) using. Ham F12 medium (NIHON PHARMACEUTICAL CO., LTD.) containing 10% fetal bovine serum (Lifetech Oriental) and were collected using 0.5 g/L trypsin-0.2 g/L EDTA (Lifetech Oriental). The cells were washed with PBS (Lifetech Oriental), centrifuged (1000 rpm, 5 minutes), and suspended in PBS. The DNA was introduced into the cells using a Gene Pulser (Bio-Rad Laboratories, Inc.) under the following conditions. Namely, 8×10^6 cells and 10 μg of plasmid pCKR5 for expression of human CCR5 were placed in a cuvette having a 0.4-cm gap, and electroporation was carried out with a voltage 0.25 kV and 960 μF of capacitance. Then, the cells were transferred into Ham's. F12 medium containing 10% fetal bovine serum, and incubated for 24 hours. The cells were collected, centrifuged, and suspended in Ham' F12 medium containing 10% fetal bovine serum and Geneticin (Lifetech Oriental) at a concentration of 500 μg/ml. The suspension of cells was diluted to a concentration of 10^4 cells/ml, and was inoculated onto 96-well plate (Becton Dickinson), to obtain Geneticin-resistant strain.
Then, resulting. Geneticin-resistant strain were cultured on 96-well plate (Becton Dickinson), and CCR5-expressing cells were selected from the resistant cells. Namely, in an assay buffer, (Ham's F12 medium containing 0.5% BSA, and 20 mM HEPES (Wako Pure Chemical Ind., pH 7.2)) to which was added […][125I]-RANTES (Amersham) as a ligand, the cells were subjected to a binding reaction at room temperature for 40 minutes. Wells containing the cells were washed with ice-cooled PBS, and 50 μl/well of 1M NaOH was added and stirred. The cells to which the ligand was bound specifically, i.e., CCR5/CHO cells, were selected by measurement of radioactivity using a […].
The CCR5/CHO cells were inoculated onto 96-well microplate at a concentration of 5×10^4 cells/well, and were cultured for 24 hours. After removal of the medium by aspiration, to each well was added an assay buffer containing a test compound (1 μM), and [125I]/RANTES (Amersham) used as a ligand at a concentration of […]. […]
`CCCCOCCOc1ccc(-c2ccc3c(c2)C=C(C(=O)Nc2ccc(SCc4nccn4C4CC4)cc2)CCN3CC(C)C)cc1` [Compound 366, 7-[4-(2-butoxyethoxy)phenyl]-N-[4-[[[1-cyclopropylimidazol-2-yl]methyl]sulfanyl]phenyl]-1-isobutyl-2,3-dihydro-1-benzazepine-4-carboxamide] showed an inhibition at 1 µM of 96%. Work on `CCCCOCCOc1ccc(-c2ccc3c(c2)C=C(C(=O)Nc2ccc([S+]([O-])Cc4cccnc4C)cc2)CCN3CC(C)C)cc1` (stereo not shown) [Compound 251, 7-[4-(2-butoxyethoxy)phenyl]-1-isobutyl-N-[4-[[(2-methyl-3-pyridinyl)methyl]sulfinyl]phenyl]-2,3-dihydro-1-benzazepine-4-carboxamide] yielded an inhibition at 1 µM of 99%. In the case of `CCCCOCCOc1ccc(-c2ccc3c(c2)C=C(C(=O)Nc2ccc([C@H](O)c4cccc[n+]4[O-])cc2)CCN3CC(C)C)cc1` [Compound 85, 7-[4-(2-butoxyethoxy)phenyl]-N-[4-[(S)-hydroxy(1-oxidopyridin-2-yl)methyl]phenyl]-1-isobutyl-2,3-dihydro-1H-1-benzazepine-4-carboxamide], the inhibition at 1 µM is reported as 92%. Molecule `CCCCOCCOc1ccc(-c2ccc3c(c2)C=C(C(=O)Nc2ccc([S+]([O-])Cc4nc(C)cc(C)n4)cc2)CCN3CC(C)C)cc1` (stereo not shown) [Compound 230, 7-[4-(2-butoxyethoxy)phenyl]-N-[4-[[(4,6-dimethyl-2-pyrimidinyl)methyl]sulfinyl]phenyl]-1-isobutyl-2,3-dihydro-1-benzazepine-4-carboxamide] has an inhibition at 1 µM of 98%. `CCCCOCCOc1ccc(-c2ccc3c(c2)C=C(C(=O)Nc2ccc([S+]([O-])Cc4nccn4CCCC(N)=O)cc2)CCN3CC(C)C)cc1` (single isomer, unassigned; (-)) [Compound 418, (−)-N-[4-[[[1-(4-amino-4-oxobutyl)-1H-imidazol-2-yl]methyl]sulfinyl]phenyl]-7-[4-(2-butoxyethoxy)phenyl]-1-isobutyl-2,3-dihydro-1H-1-benzazepine-4-carboxamide] gave an inhibition at 1 µM of 92%. `CCCCOCCOc1ccc(-c2ccc3c(c2)C=C(C(=O)Nc2ccc(SCc4cnc5n4CCCC5)cc2)CCN3CC(C)C)cc1` [Compound 404, 7-[4-(2-butoxyethoxy)phenyl]-1-isobutyl-N-[4-[[(5,6,7,8-tetrahydroimidazo[1,2-a]pyridin-3-yl)methyl]thio]phenyl]-2,3-dihydro-1H-1-benzazepine-4-carboxamide] showed an inhibition at 1 µM of 85%. Work on `CCCCOCCOc1ccc(-c2ccc3c(c2)C=C(C(=O)Nc2ccc([S+]([O-])CC4=NNCN4CCC)nn2)CCN3CC(C)C)cc1` (stereo not shown) [Compound 68, 7-[4-(2-butoxyethoxy)phenyl]-1-isobutyl-N-[6-[(4-propyl-1H-1,2,4-triazol-3-yl)methylsulfinyl]pyridazin-3-yl]-2,3-dihydro-1H-1-benzazepine-4-carboxamide] yielded an inhibition at 1 µM of 97%. `CCCCOCCOc1ccc(-c2ccc3c(c2)C=C(C(=O)Nc2ccc([S+]([O-])Cc4cccnn4)cc2)CCN3CC(C)C)cc1` (stereo not shown) [Compound 259, 7-[4-(2-butoxyethoxy)phenyl]-1-isobutyl-N-[4-[(3-pyridazinylmethyl)sulfinyl]phenyl]-2,3-dihydro-1-benzazepine-4-carboxamide] was tested, and the inhibition at 1 µM was 88%. In the case of `CCCCOCCOc1ccc(-c2ccc3c(c2)C=C(C(=O)Nc2ccc(SCc4nncn4CCC)nc2)CCN3CC(C)C)cc1` [Compound 53, 7-[4-(2-butoxyethoxy)phenyl]-1-isobutyl-N-[2-(4-propyl-4H-1,2,4-triazol-3-yl)methylthiopyridin-5-yl]-2,3-dihydro-1H-1-benzazepine-4-carboxamide], the inhibition at 1 µM is reported as 98%. `CCCCOCCOc1ccc(-c2ccc3c(c2)C=C(C(=O)Nc2ccc([S+]([O-])Cc4cncn4C4CC4)cc2)CCN3CC(C)C)cc1` (stereo not shown) [Compound 74, 7-[4-(2-butoxyethoxy)phenyl]-1-isobutyl-N-[4-[(3-cyclopropylimidazol-4-yl)methylsulfinyl]phenyl]-2,3-dihydro-1H-1-benzazepine-4-carboxamide] showed an inhibition at 1 µM of 97%. `CCCCOCCOc1ccc(-c2ccc3c(c2)C=C(C(=O)Nc2ccc([S+]([O-])Cc4cccnc4)c(OC)c2)CCN3CC(C)C)cc1` (stereo not shown) [Compound 240, 7-[4-(2-butoxyethoxy)phenyl]-1-isobutyl-N-[3-methoxy-4-[(3-pyridinylmethyl)sulfinyl]phenyl]-2,3-dihydro-1-benzazepine-4-carboxamide] showed an inhibition at 1 µM of 97%. `CCCCOCCOc1ccc(-c2ccc3c(c2)C=C(C(=O)Nc2ccc(SCc4cncn4C(C)C)cc2)CCN3CC(C)C)cc1` [Compound 383, 7-[4-(2-butoxyethoxy)phenyl]-1-isobutyl-N-[4-[[[1-isopropylimidazol-5-yl]methyl]sulfanyl]phenyl]-2,3-dihydro-1-benzazepine-4-carboxamide] gave an inhibition at 1 µM of 93%. `CCCCOCCOc1ccc(-c2ccc3c(c2)C=C(C(=O)Nc2ccc(CCc4nncn4CCC)cc2)CCN3CC(C)C)cc1` [Compound 152, 7-[4-(2-butoxyethoxy)phenyl]-1-isobutyl-N-[4-[2-(4-propyl-4H-1,2,4-triazol-3-yl)ethyl]phenyl]-2,3-dihydro-1H-benzazepine-4-carboxamide] showed an inhibition at 1 µM of 97%. For `CCCCOCCOc1ccc(-c2ccc3c(c2)C=C(C(=O)Nc2ccc([S+]([O-])Cc4nnnn4CC)cc2)CCN3CC(C)C)cc1` (stereo not shown) [Compound 242, 7-[4-(2-butoxyethoxy)phenyl]-1-isobutyl-N-[4-[[(1-ethyl-tetrazol-5-yl)methyl]sulfinyl]phenyl]-2,3-dihydro-1-benzazepine-4-carboxamide], the inhibition at 1 µM was 94%. `CCCCOCCOc1ccc(-c2ccc3c(c2)C=C(C(=O)Nc2ccc(SCc4nccn4C)c(C)c2)CCN3CC(C)C)cc1` [Compound 355, 7-[4-(2-butoxyethoxy)phenyl]-1-isobutyl-N-[3-methyl-4-[[(1-methylimidazol-2-yl)methyl]sulfanyl]phenyl]-2,3-dihydro-1-benzazepine-4-carboxamide] showed an inhibition at 1 µM of 99%. Molecule `CCCCOCCOc1ccc(-c2ccc3c(c2)C=C(C(=O)Nc2ccc([S+]([O-])Cc4nncn4CCC)cc2)CCN3CCC)cc1` (stereo not shown) [Compound 141, 7-[4-(2-butoxyethoxy)phenyl]-1-propyl-N-[4-(4-propyl-4H-1,2,4-triazol-3-ylmethylsulfinyl)phenyl]-2,3-dihydro-1H-benzazepine-4-carboxamide] has an inhibition at 1 µM of 100%. Molecule `CCCCOCCOc1ccc(-c2ccc3c(c2)C=C(C(=O)Nc2ccc([S+]([O-])Cc4cccnc4)cc2)CCN3CC(C)C)cc1` (stereo not shown) [Compound 210, 7-[4-(2-butoxyethoxy)phenyl]-1-isobutyl-N-[4-[(3-pyridinylmethyl)sulfinyl]phenyl]-2,3-dihydro-1-benzazepine-4-carboxamide] has an inhibition at 1 µM of 97%.

Same assay, conditions: test compound 1 μM, [125I]-RANTES as ligand, room temperature, 40 minutes
In the case of `CCCCOCCOc1ccc(-c2ccc3c(c2)C=C(C(=O)Nc2ccc(SCc4nccn4CCCO)cc2)CCN3CC(C)C)cc1` [Compound 436], the “Binding Inhibitory Ratio (%)” value is reported as 100%. `CCCCOCCOc1ccc(-c2ccc3c(c2)C=C(C(=O)Nc2ccc([S+]([O-])Cc4cncn4CCC)cc2)CCN3CC(C)C)cc1` (single isomer, unassigned; (-)) [Compound 373, (−)-7-[4-(2-butoxyethoxy)phenyl]-1-isobutyl-N-[4-[[[1-propylimidazol-5-yl]methyl]sulfinyl]phenyl]-2,3-dihydro-1-benzazepine-4-carboxamide] was tested, and the “Binding Inhibitory Ratio (%)” value was 94%.
